From a melting point compilation (Tetko et al.; mined from patent text by program, amines drawn as free bases though some values may be those of a salt)

melting point [°C]	Compound
169 to 170	CC(C)(C)C(=O)Nc1c(F)cc(F)cc1Oc1ccc(C(C)(C)C(N)=O)cc1
101 to 106	CN(SSN(C)S(=O)(=O)c1ccccc1)S(=O)(=O)c1ccccc1
65.5 to 67	C[C@]1(Cn2cc([N+](=O)[O-])nc2Cl)CO1
144 to 145	Cc1nc(C)c(Cl)c(NCc2nccc(SCCCN3CCNCC3)c2C)n1
185	COc1ccc(C(=O)C2=C(O)C(=O)N(c3nnc(C)s3)C2c2ccc(C#N)cc2)cc1 (stereo unspecified)
113 to 119	O=C(CC1CCCCCC1)c1cn(CCO)c2cccc(Cl)c12
137 to 138	CCOc1ccccc1C1CN=C(NC(=O)OC)N1C (stereo unspecified)
210 to 211	CCc1c2c(nn1CC)c(N)nc1cc(OC)ccc12
138 to 139	CCCNC(=O)c1ccc(/C=C(\C)c2ccc3c(c2)C(C)(C)CCO3)cc1
132 to 136	CC(C)c1cc(CN2C(=O)C3(COc4cc5c(cc43)OCO5)c3ccccc32)on1 (stereo unspecified)
117	COC=C(C(=O)OC)c1ccccc1C=Cc1cscn1
218 to 224	COc1cc(C(=O)CN2CCN(c3ccncc3)CC2)ccc1OCC(=O)O
194 to 196	COc1ccc(-c2noc3c2CCCC(C(=O)O)C3)cc1 (stereo unspecified)
193 to 195	CC(=O)N(O)C(C)c1cccc(Nc2ccccc2C(=O)NN)c1Cl (stereo unspecified)
107 to 109	OCc1ccc2c(c1)ncn2-c1cccc(Br)c1
110 to 111	CCCCCCCN(CCN1CCN(CCSc2nc3ccccc3o2)CC1)C(=O)Nc1c(C(C)C)cccc1C(C)C
115 to 116	COc1nc(C)n2nc(SCc3ccccc3)nc2c1Cl
125 to 128	CCOC(=O)c1cnc2c(SC(=O)N(C)C)nccn2c1=O
240 to 242	CN1C(=O)CC[C@]2(C)c3ccc(NC(=O)c4cccc([N+](=O)[O-])c4)cc3CC[C@@H]12
> 210	COc1ccc(F)c2c(O)c3cnccc3cc12
240 to 242	CCOC(=O)c1cc(=O)c2c(ccc3c4ccccc4c(=O)oc32)o1
68 to 69	COC(=O)c1ccc(OCCCN(C(C)=O)c2ccc(Cl)cc2)cc1
228 to 229	Cn1ncc2c1-c1c(S(C)(=O)=O)sc(S(N)(=O)=O)c1CC2
245 to 248	O=C1Nc2c(C(F)(F)F)cccc2C12COc1cc3c(cc12)OCO3 (stereo unspecified)

melting point [°C]	Compound
130 to 133	CNC(=O)[C@@H](NC(=O)[C@@H](CC(=O)OCc1ccccc1)n1ccc(-c2ccncc2)c1)C(C)(C)C
120 to 122	Cc1cc(F)ccc1Nc1nc(N2CCc3ccccc3C2C)c2cccc(OCCO)c2n1 (stereo unspecified)
73 to 75	COc1ccc2c(O)cccc2c1
158 to 161	C[Si](C)(C)CCOC1OC(CO)C(O)C(O)C1N=[N+]=[N-] (stereo unspecified)
166 to 167	c1ccc2c(c1)nc(-c1ccc3c(c1)OCO3)n2Cc1ccncc1
246	Cc1ccc2c(c1)NC(=S)C2=O
62 to 63	O=C(CCCCl)Nc1cccc2cccnc12
139 to 140	COc1cc(C)c(C)cc1NC(=O)N1CCN(c2cc(-c3ccccc3)ccc2OC)CC1
93 to 95	COc1ccc(C2CCN(C(=O)/C=C/c3ccccc3)CC2)cc1OC1CCCC1
168 to 170	O=C(CCCN1CCCCC1)c1ccc2c(c1)C(=O)c1cc(C(=O)CCCN3CCCCC3)ccc1-2
160 to 162	COC(=O)Nc1ccccc1CS(=O)c1ncc(C(F)(F)F)cc1Cl (stereo unspecified)
160 to 162	COc1nc(OC)nc(N(C)C(=O)NS(=O)(=O)c2ccccc2S(C)(=O)=O)n1
275 to 276	O=C1C(=O)c2ccccc2C2=C1SCC1(CCN(S(=O)(=O)c3ccc(Cl)c(Cl)c3)CC1)O2
136 to 137	CN(C[C@@H]1C[C@H]1COc1ccc(C(=O)c2ccc(Br)cc2)cc1)C1CC1 (racemic)
109 to 110	CC(=O)CC(=O)Nc1cccc(C(F)(F)F)c1
99 to 100	C=CC(=O)Oc1ccc(NS(=O)(=O)CC)cc1
209 to 211	O=C(O)c1cccc2c1CCc1ccc(F)cc1S2
144	CC1(c2ccccc2)OC(C(=O)O)Oc2ccc(Cl)cc21 (stereo unspecified)
79 to 81	CCCCCCCCCCCCCCCCCCOc1cc(OCCCOc2ccccc2)cc(C(=O)O)c1
92 to 96	O=C(CCN1CCN(c2ccc3ccccc3n2)CC1)c1csc2ccccc12
133	CC(C)(Oc1cccc(C(=O)c2ccc(C(F)(F)F)cc2)c1)C(=O)O
139 to 140	COC(=O)CCCc1cc2cc(Cl)ccc2n1S(=O)(=O)c1ccc2c(c1)OCCN2C
93	CCOC(=O)CC(CCCNC(=O)c1csc(NC(=O)NCc2ccccc2)n1)c1ccccc1 (racemic)
82 to 84	OCCN1CCN(c2nn(-c3ccc(C(F)(F)F)cc3)c3ccccc23)CC1

melting point [°C]	Compound
118 to 119	COc1cc(Nc2nccc(-c3ccc(N4CCNC(CO)C4)nc3)n2)cc(OC)c1OC (stereo unspecified)
138 to 139	Oc1cccc(C2CNC3(CCCCC3)O2)c1 (stereo unspecified)
148 to 149	CCOC(=O)/C=C/c1cn(Cc2ccc(OCc3nc(-c4ccccc4)oc3C)cc2)nc1OCc1ccc(OCc2nc(-c3ccccc3)oc2C)cc1
203 to 204	CCOC(=O)c1csc(NC(=O)c2cccc(C#N)c2)n1
190 to 191	COc1ccc(Cl)c(Oc2c(NS(=O)(=O)c3ccc(C(C)C)cn3)ncnc2OCCOC(=O)Nc2ccccn2)c1
163 to 165	CCCN1CC(C)=CC2=C1N1CN(OC)C=C1N=N2
132 to 134	COC(=O)c1nc(-c2ccc(Cl)cc2)nc(NCc2ccco2)c1Cl
104 to 106	CC=C(C(=O)OC(c1ccccc1)c1ccccc1)N1C(=O)[C@@H]2N=C(Cc3ccccc3)O[C@@H]21
218 to 220	Cc1ccccc1CN1CCC(n2c(C)c(-c3ccc(Cl)cc3)[nH]c2=O)CC1
101 to 102	COc1ccc(CC(=O)c2ccc(OC)nc2)cc1
169 to 172	CC(=O)OC1CCC2(C)C(=CCC3C2CCC2(C)C(C(C)=O)=CCC32)C1 (stereo unspecified)
154	CC(C)(CCCCCCCCCCC(C)(C)C(Cl)(Cl)C(=O)O)C(Cl)(Cl)C(=O)O
218 to 220	COc1cc(-c2nc(NC3CCCC3)c3c(C)c(C#N)sc3n2)cc(OC)c1OC
82 to 84	CCOC(=O)Cc1ccc2c(c1)sc1cccc(Cl)c12
166 to 170	CC(C)(C)c1cc(OC(=O)N2CC(O)C2)cc(C(C)(C)C)c1
150 to 152	COC(=O)c1c([N+](=O)[O-])cccc1[N+](=O)[O-]
58 to 59	Oc1cc(C(F)(F)F)nn1-c1ccc(Cl)cn1
228	N#CC1=C(c2ccc3ccccc3c2)Nc2n[nH]cc2C1c1cccc2nonc12 (stereo unspecified)
293 to 295	COc1ccc2c(c1)c1c3c(c(-c4ccccc4Cl)cc1n2CCC(=O)NS(C)(=O)=O)C(=O)NC3=O
200 to 201	CC1(C)C(=O)Nc2ccc(-c3coc(C#N)c3)cc21
115 to 118	COc1cc(N)c(Cl)cc1C(=O)NCC1CCN(CCCCCC(=O)c2cccs2)CC1
134	Cc1ncsc1C(O)c1ccc(Cl)cc1 (stereo unspecified)
266 to 267	O=c1[nH]ccc2cc(S(=O)(=O)N3CCCNCC3)ccc12
